Measurements taken from patent US12098148B2, “Therapeutic compounds” (C4X Discovery Limited, priority 2018, dated 2024).
Read-outs that look alike come from different tables or passages of the source.

Tests used:
[1] = tested on: NQO1 mRNA in BEAS-2B cells; experiment: Beas2B NQO1 mRNA cell based assay; set-up: species or system human
Outline: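 BEAS-2B human bronchial epithelial cells exposed to compound for 24 h at 37 °C, 5% CO2. NQO1 mRNA measured by one-step TaqMan RT-qPCR on unpurified lysates, normalized to β-actin; relative expression by ΔΔCT method.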

[2] = target: human KEAP1 (N-term, residues 321-609) (Homo sapiens, UniProt Q14145); experiment: biochemical;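 further: fluorescence polarization competition assay of Kelch domain binding to NRF2, 12-point 1:3 dilution series from 10 µM, read after 1 h at room temperature, floor 10 nM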
[3] = Homo sapiens, BEAS-2B, 24 h, 24 h compound treatment, increase in NQO1 mRNA vs vehicle (0.1% DMSO), read-out: EC50

Sequence of human KEAP1 (N-term, residues 321-609) (Q14145 321-609): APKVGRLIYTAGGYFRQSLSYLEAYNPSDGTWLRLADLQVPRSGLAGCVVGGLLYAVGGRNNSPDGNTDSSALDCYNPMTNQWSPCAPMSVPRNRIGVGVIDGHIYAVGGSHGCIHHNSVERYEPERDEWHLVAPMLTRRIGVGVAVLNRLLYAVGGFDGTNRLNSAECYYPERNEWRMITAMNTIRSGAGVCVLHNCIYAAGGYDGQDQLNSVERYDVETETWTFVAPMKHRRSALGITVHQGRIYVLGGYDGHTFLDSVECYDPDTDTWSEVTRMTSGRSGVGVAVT

Row | SMILES | IC50 [2] | EC50 [1, 3] | EC50 ([1]; Homo sapiens, BEAS-2B, NQO1 mRNA, on one test occasion, read-out: EC50 on one test occasion (footnote to Table 5)) | EC50 ([1]; 24 h compound treatment, increase in NQO1 mRNA vs vehicle (0.1% DMSO), read-out: EC50)
1 | Cn1cnc2cc(COc3cccc4c3[C@@H](CN3C(=O)c5ccccc5C3=O)N(C(=O)[C@@H]3CCCC[C@@H]3C(=O)O)CC4)ccc21 [Example 10, (1S,2R)-2-((S)-1-((1,3-dioxoisoindolin-2-yl)methyl)-8-((1-methyl-1H-benzo[d]imidazol-5-yl)methoxy)-1,2,3,4-tetrahydroisoquinoline-2-carbonyl)cyclohexane-1-carboxylic acid] | 15 nM | 140 nM | > 500 nM | 
2 | O=C(O)[C@H]1CCCC[C@H]1C(=O)N1CCc2c(Cl)ccc(OCc3cccnn3)c2[C@H]1CN1CCCC1=O [Example 88, (1S,2R)-2-((S)-5-Chloro-1-((2-oxopyrrolidin-1-yl)methyl)-8-(pyridazin-3-ylmethoxy)-1,2,3,4-tetrahydroisoquinoline-2-carbonyl) cyclohexane-1-carboxylic acid] | 11 nM | 78 nM |  | 
3 | Cn1nnc(COc2ccc(Cl)c3c2[C@@H](CN2CCCC2=O)N(C(=O)C2CCOC2C(=O)O)CC3)c1C(F)F (stereo partly drawn) [Example 97, 3-((S)-5-chloro-8-((5-(difluoromethyl)-1-methyl-1H-1,2,3-triazol-4-yl)methoxy)-1-((2-oxopyrrolidin-1-yl)methyl)-1,2,3,4-tetrahydroisoquinoline-2-carbonyl) tetrahydrofuran-2-carboxylic acid] | 17 nM | 750 nM |  | 
4 | CC(C)n1cc(COc2ccc(C#N)c3c2[C@@H](CN2Cc4ccccc4C2=O)N(C(=O)[C@@H]2CCCC[C@@H]2C(=O)O)CC3)nn1 [Example 60, (1S,2R)-2-((S)-5-cyano-8-((1-isopropyl-1H-1,2,3-triazol-4-yl)methoxy)-1-((1-oxoisoindolin-2-yl)methyl)-1,2,3,4-tetrahydroisoquinoline-2-carbonyl)cyclohexane-1-carboxylic acid] | 96 nM | 2.8 nM |  | 
5 | Cn1ncnc1COc1ccc(Br)c2c1[C@@H](CN1Cc3ccccc3C1=O)N(C(=O)[C@@H]1CCCC[C@@H]1C(=O)O)CC2 [Example 29, (1S,2R)-2-((S)-5-Bromo-8-((1-methyl-1H-1,2,4-triazol-5-yl)methoxy)-1-((1-oxoisoindolin-2-yl)methyl)-1,2,3,4-tetrahydroisoquinoline-2-carbonyl)cyclohexane-1-carboxylic acid] | 16 nM | 100 nM |  | 
6 | Cn1nnc(COc2ccc(Cl)c3c2[C@@H](CN2CCCC2=O)N(C(=O)[C@@H]2CCCC[C@]2(C)C(=O)O)CC3)c1C(F)(F)F [Example 108, (1S,2R)-2-((S)-5-Chloro-8-((1-methyl-5-(trifluoromethyl)-1H-1,2,3-triazol-4-yl)methoxy)-1-((2-oxopyrrolidin-1-yl)methyl)-1,2,3,4-tetrahydroisoquinoline-2-carbonyl)-1-methylcyclohexane-1-carboxylic acid] | 5.9 nM | 1.5 nM |  | 
7 | Cc1nnc(COc2ccc(Br)c3c2[C@@H](CN2Cc4ccccc4C2=O)N(C(=O)[C@@H]2CCCC[C@@H]2C(=O)O)CC3)o1 [Example 36, (1S,2R)-2-((S)-5-bromo-8-((5-methyl-1,3,4-oxadiazol-2-yl)methoxy)-1-((1-oxoisoindolin-2-yl)methyl)-1,2,3,4-tetrahydroisoquinoline-2-carbonyl)cyclohexane-1-carboxylic acid] | 11 nM | 130 nM |  | 
8 | O=C(O)[C@H]1CCCC[C@H]1C(=O)N1CCc2cccc(O[C@H]3CCN(C(=O)c4cncs4)C3)c2[C@H]1CN1C(=O)c2ccccc2C1=O [Example 6, (1S,2R)-2-((S)-1-((1,3-dioxoisoindolin-2-yl)methyl)-8-(((S)-1-(thiazole-5-carbonyl)pyrrolidin-3-yl)oxy)-1,2,3,4-tetrahydroisoquinoline-2-carbonyl)cyclohexane-1-carboxylic acid] | 5.6 nM | 78 nM |  | 
9 | O=C(O)[C@H]1CCCC[C@H]1C(=O)N1CCc2c(Br)ccc(OCc3nnc4ccccn34)c2[C@H]1CN1Cc2ccccc2C1=O [Example 16, (1S,2R)-2-((S)-8-([1,2,4]triazolo[4,3-a]pyridin-3-ylmethoxy)-5-bromo-1-((1-oxoisoindolin-2-yl)methyl)-1,2,3,4-tetrahydroisoquinoline-2-carbonyl)cyclohexane-1-carboxylic acid] | 8.1 nM | 2 nM |  | 
10 | C[C@]1(C(=O)O)CCCC[C@H]1C(=O)N1CCc2c(Cl)ccc(OCc3noc4ccccc34)c2[C@H]1CN1CCCC1=O [Example 100, (1S,2R)-2-((S)-8-(benzo[d]isoxazol-3-ylmethoxy)-5-chloro-1-((2-oxopyrrolidin-1-yl)methyl)-1,2,3,4-tetrahydroisoquinoline-2-carbonyl)-1-methylcyclohexane-1-carboxylic acid] | 5.1 nM | 3.4 nM |  | 

Continued, in another order:

Row | IC50 [2] | SMILES | EC50 [1, 3] | EC50 ([1]; Homo sapiens, BEAS-2B, NQO1 mRNA, on one test occasion, read-out: EC50 on one test occasion (footnote to Table 5)) | EC50 ([1]; 24 h compound treatment, increase in NQO1 mRNA vs vehicle (0.1% DMSO), read-out: EC50)
11 | 5.1 nM | Cn1nnc(COc2ccc(Cl)c3c2[C@@H](CN2CCOCC2=O)N(C(=O)[C@@H]2CCCC[C@]2(C)C(=O)O)CC3)c1C(F)F [Example 200, (1S,2R)-2-((S)-5-chloro-8-((5-(difluoromethyl)-1-methyl-1H-1,2,3-triazol-4-yl)methoxy)-1-((3-oxomorpholino)methyl)-1,2,3,4-tetrahydroisoquinoline-2-carbonyl)-1-methylcyclohexane-1-carboxylic acid] | 1.2 nM |  | 
12 | 9.2 nM | Cc1onc(COc2ccc(Cl)c3c2[C@@H](CN2CCCC2=O)N(C(=O)[C@@H]2CCCC[C@]2(C)C(=O)O)CC3)c1Cl [Example 125, (1S,2R)-2-((S)-5-chloro-8-((4-chloro-5-methylisoxazol-3-yl)methoxy)-1-((2-oxopyrrolidin-1-yl)methyl)-1,2,3,4-tetrahydroisoquinoline-2-carbonyl)-1-methylcyclohexane-1-carboxylic acid] | 30 nM |  | 
13 | 5.6 nM | C[C@]1(C(=O)O)CCCC[C@H]1C(=O)N1CCc2c(Cl)ccc(OCc3nnn4c3CCCC4)c2[C@H]1CN1CCOCC1=O [Example 196] | 0.97 nM |  | 
14 | 8.5 nM | C[C@]1(C(=O)O)CCCC[C@H]1C(=O)N1CCc2c(Cl)ccc(OCc3nnn(C4COC4)c3C(F)F)c2[C@H]1CN1CC2(CC2)CC1=O [Example 192, (1S,2R)-2-((S)-5-chloro-8-((5-(difluoromethyl)-1-(oxetan-3-yl)-1H-1,2,3-triazol-4-yl)methoxy)-1-((6-oxo-5-azaspiro[2.4]heptan-5-yl)methyl)-1,2,3,4-tetrahydroisoquinoline-2-carbonyl)-1-methylcyclohexane-1-carboxylic acid] | 3.8 nM |  | 
15 | 71 nM | Cn1nnc2c1CC(Oc1ccc(Cl)c3c1[C@@H](CN1CC4(CC4)CC1=O)N(C(=O)[C@@H]1CCCC[C@]1(C)C(=O)O)CC3)C2 (single isomer, unassigned; isomer 1) [Example 215] |  |  | 550 nM
16 | 7 nM | Cn1nnc(COc2ccc(Cl)c3c2[C@@H](CN2CC4(CC4)CC2=O)N(C(=O)[C@@H]2C[C@@H](O)CC[C@]2(C)C(=O)O)CC3)c1C(F)F [Example 220, (1S,2R,4S)-2-((S)-5-chloro-8-((5-(difluoromethyl)-1-methyl-1H-1,2,3-triazol-4-yl)methoxy)-1-((6-oxo-5-azaspiro[2.4]heptan-5-yl)methyl)-1,2,3,4-tetrahydroisoquinoline-2-carbonyl)-4-hydroxy-1-methylcyclohexane-1-carboxylic acid] | 15 nM |  | 
